# In patent US20020052323A1, “Quinoline-(C=O)-(multiple amino acids)-leaving group compounds for pharmaceutical compositions and reagents” (priority 2000, published 2002):
# Values joined by “and” are separate entries in the source; they are usually repeats but may differ in a detail not shown here. Identical values can stand only once. Like-named read-outs stand apart in the source and are kept apart here.
# Key:
# caspase 1 = target: T1, caspase 1 (Homo sapiens, UniProt P29466); test: Caspase inhibition assay, AcYVAD-AFC substrate; assay type: biochemical
# T1 sequence (P29466 120-297 limits assumed): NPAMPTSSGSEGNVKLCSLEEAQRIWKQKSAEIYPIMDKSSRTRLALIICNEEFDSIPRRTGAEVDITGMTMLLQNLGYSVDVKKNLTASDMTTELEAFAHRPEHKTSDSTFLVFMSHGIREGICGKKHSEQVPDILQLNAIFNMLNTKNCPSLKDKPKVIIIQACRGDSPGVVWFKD
# T1 sequence (P29466 317-404 limits assumed): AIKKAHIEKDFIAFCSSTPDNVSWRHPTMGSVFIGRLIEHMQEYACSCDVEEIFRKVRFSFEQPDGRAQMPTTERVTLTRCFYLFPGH
# Method: (§1) The determination of the IC50/μm was performed according to Gary Johnson, 9401 James Avenue, Suite No. 155, Bloomington, Minn. 55431.
# (§2) Caspase Inhibition Assay:—Caspases are diluted in caspase buffer, 0.1 M HEPES, 10% sucrose 0.1% CHAPS and 10 mM DTT, pH 7.5. Caspases 1, 3, and 8 are used at a concentration of 144 U/well and caspase 9 is used at 4.8 U/well in a 96 well fluorometric plate.
# (§3) Inhibitors are initially dissolved in DMSO at 10 mg/ml and further dilutions can be prepared in caspase buffer. The inhibitors are generally tested at concentrations ranging from 50 uM to 0.005 uM. These are usually prepared as 2 fold or 2.5 fold decreasing dilutions. The enzyme approximately 144 U in 120 ul caspase buffer is added to 380 ul caspase buffer containing the appropriate concentration on the inhibitor and incubated on ice for 15 min. The reactants 200 ul are then added to a black fluorimetric plate and incubated in the fluorometer at 37° C. for 30 min.
# (§4) During the incubation period appropriate coumarin substrates are prepared by dilution in DMSO and caspase buffer to provide a 0.417 mM working stock. AcYVAD-AFC is used for caspase 1, AcDEVD-AFC for caspase 3. AcIETD-AFC for caspase 8 and Ac-LEHD-AFC for capsase 9. Twenty five microliters of the stock solution are added to 200 ul of the caspase and inhibitor test solutions to give a final substrate concentration of 0.046 mM.
# (§5) The fluorometer is set to 400 nm excitation and 505 nm emission. The enzyme-inhibitor-substrate is allowed to incubate at for an additional twenty min. and the response is read as fluorescence units vs inhibitor concentration. The responses are plotted as percent of the maximum response (response in the absence of inhibitor) for each concentration of the inhibitor. The inhibitory activity for each inhibitor is described as the concentration of inhibitor that produces a 50% inhibition of the maximum response (IC50).
# caspase 3 = target: T2, caspase 3 (Homo sapiens, UniProt P42574); test: Caspase inhibition assay, AcDEVD-AFC substrate; assay type: biochemical
# T2 sequence (P42574 29-175 limits assumed): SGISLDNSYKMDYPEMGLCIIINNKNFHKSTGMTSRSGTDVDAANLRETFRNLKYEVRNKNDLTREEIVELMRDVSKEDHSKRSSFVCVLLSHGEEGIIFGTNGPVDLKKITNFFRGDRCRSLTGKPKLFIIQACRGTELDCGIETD
# T2 sequence (P42574 176-277 limits assumed): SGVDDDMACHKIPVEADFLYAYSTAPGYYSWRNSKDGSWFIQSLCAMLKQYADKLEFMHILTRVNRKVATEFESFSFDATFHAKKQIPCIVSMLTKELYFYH
# Method: as §1, §2, §3, §4, §5
# caspase 8 = caspase 8 (Homo sapiens, UniProt Q14790); test: Caspase inhibition assay, AcIETD-AFC substrate; assay type: biochemical
# Method: as §1, §2, §3
# During the incubation period appropriate coumarin substrates are prepared by dilution in DMSO and caspase buffer to provide a 0.417 mM working stock. AcYVAD-AFC is used for caspase 1, AcDEVD-AFC for caspase 3. […]
# The fluorometer is set to 400 nm excitation and 505 nm emission. The enzyme-inhibitor-substrate is allowed to incubate at for an additional twenty min. and the response is read as fluorescence units vs inhibitor concentration. […]
# caspase 9 = target: T3, caspase 9 (Homo sapiens, UniProt P55211); test: Caspase inhibition assay, Ac-LEHD-AFC substrate; assay type: biochemical
# T3 sequence (P55211 1-315 limits assumed): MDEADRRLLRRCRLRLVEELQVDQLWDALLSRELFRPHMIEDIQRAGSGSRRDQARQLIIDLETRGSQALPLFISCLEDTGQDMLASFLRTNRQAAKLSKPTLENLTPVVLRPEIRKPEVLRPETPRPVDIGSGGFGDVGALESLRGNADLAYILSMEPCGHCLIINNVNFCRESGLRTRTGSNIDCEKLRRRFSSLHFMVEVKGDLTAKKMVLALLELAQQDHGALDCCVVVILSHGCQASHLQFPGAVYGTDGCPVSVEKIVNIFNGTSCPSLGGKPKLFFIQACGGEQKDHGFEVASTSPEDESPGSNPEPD
# T3 sequence (P55211 331-416 limits assumed): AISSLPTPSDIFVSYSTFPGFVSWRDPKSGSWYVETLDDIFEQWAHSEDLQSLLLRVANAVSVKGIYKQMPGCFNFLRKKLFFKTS
# Method: as §1, §2, §3, §4, §5
# [1] = from figure, antilog of log concentration, read-out: IC50 caspase 1
# [2] = from figure, antilog of log concentration, read-out: IC50 caspase 3
# [3] = esterase treated inhibitor, read-out: IC50 caspase 1
# Chain of caspase 8 (Q14790 217-374 limits assumed, species assumed): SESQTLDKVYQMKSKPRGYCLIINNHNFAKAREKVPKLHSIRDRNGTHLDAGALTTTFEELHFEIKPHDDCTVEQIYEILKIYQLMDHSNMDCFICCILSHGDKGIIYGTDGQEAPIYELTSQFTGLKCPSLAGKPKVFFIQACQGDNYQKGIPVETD
# Chain of caspase 8 (Q14790 385-479 limits assumed, species assumed): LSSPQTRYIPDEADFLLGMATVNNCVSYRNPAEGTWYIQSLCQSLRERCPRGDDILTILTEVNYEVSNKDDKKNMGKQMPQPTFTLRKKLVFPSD
compound,measurement,setting,value
"COC(=O)CC(NC(=O)C(NC(=O)c1ccc2ccccc2n1)C(C)C)C(=O)COc1cc(N)ccc1C(=O)O (stereo not drawn) [Q-VD(OMe)-ASA, Quinoline-(2-Carbonyl)-Val-Asp(OMe)-α-(2-oxy-Amino Salicylic Acid)]",IC50,"caspase 1; Table 5, read-out: CASP-1 IC50",1500 nM
same,IC50,caspase 1; [1],~1460 nM
same,IC50,"caspase 3; Table 5, read-out: CASP-3 IC50",1240 nM
same,IC50,caspase 3; [2],~1230 nM and ~980 nM
same,IC50,"caspase 8; Table 5, read-out: CASP-8 IC50",5880 nM
same,IC50,"caspase 8; from figure, read-out: IC50 caspase 8",~5820 nM
same,IC50,"caspase 9; from figure, antilog of log concentration",~5440 nM
COC(=O)CC(NC(=O)C(NC(=O)c1ccc2ccccc2n1)C(C)C)C(=O)COc1ccc(CCNC(=O)OC(C)(C)C)cc1O (stereo not drawn) [Q-VD(OMe)-DOPA-BOC],IC50,"caspase 3; Table 5, read-out: CASP-3 IC50",< 25000 nM
"COC(=O)CC(NC(=O)C(NC(=O)c1ccc2ccccc2n1)C(C)C)C(=O)COc1ccccc1C(=O)O (stereo not drawn) [Q-VD(OMe)-SA, Quinoline-(2-Carbonyl)-Val-Asp(OMe)—CH—O-Salicylic Acid]",IC50,"caspase 1; Table 5, read-out: CASP-1 IC50",1430 nM
same,IC50,caspase 1; [1],~1430 nM
same,IC50,"caspase 3; Table 5, read-out: CASP-3 IC50",500 nM
"COC(=O)C[C@H](NC(=O)[C@@H](NC(=O)c1ccc2ccccc2n1)C(C)C)C(=O)COC1=C(c2ccccc2)C(=O)OC1 [Q-VD(OMe)-Tetronic Acid, Quinoline-(2-Carbonyl)-Val-Asp(OMe)—CH2-2-Phenyltetronic Acid]",IC50,"caspase 3; Table 5, read-out: CASP-3 IC50",250 nM
"COC(=O)C[C@H](NC(=O)[C@H](C)NC(=O)[C@@H](NC(=O)c1ccc2ccccc2n1)C(C)C)C(=O)CF [QVAD(OMe)FMK, Quinoline-(C═O)Val-Ala-Asp(OMe)-Fluoromethyl Ketone]",concentration vs. >90% cell survival,,100 µM
COC(=O)CC(NC(=O)C(CC(C)C)NC(=O)c1ccc2ccccc2n1)C(=O)CF [quinoline-(2-carbonyl)-L-D(OMe)—CH2-FMK],IC50,caspase 1; [3],~39.8 nM
same,IC50,"caspase 3; esterase treated inhibitor, read-out: IC50 caspase 3",~31 nM
same,IC50,"caspase 3; non-esterase treated inhibitor, read-out: IC50 caspase 3",45 nM
same,IC50,caspase 9; esterase treated inhibitor,~70 nM
same,IC50,caspase 9; non-esterase treated inhibitor,~65 nM
CC(C)C[C@H](NC(=O)c1ccc2ccccc2n1)C(=O)N[C@@H](CC(=O)O)C(=O)COc1ccccc1 [quinoline-(2-carbonyl)-L-D-CH2—OPh],IC50,caspase 1; [1],~548 nM
same,IC50,caspase 3; [2],~50 nM
"COC(=O)CC(NC(=O)C(NC(=O)c1ccc2ccccc2n1)C(C)C)C(=O)CF [quinoline-(2-carbonyl)-V-D(OMe)—CH2-FMK, Quinoline-(2-Carbonyl)-V-D-(OMe)-α-CH2F (the Fluoromethyl Ketone)]",IC50,caspase 1; [3],~68 nM
same,IC50,caspase 9; esterase treated inhibitor,25 nM
same,IC50,caspase 9; non-esterase treated inhibitor,~29 nM
Quinoline-(2-Carbonyl)-Val-Asp(OMe)-α-(3-oxy-Dopamine) [Q-VD(OMe)-DOPA.TFA],IC50,"caspase 3; Table 5, read-out: CASP-3 IC50",2000 nM
